From patent publication US11208412B2 (DAEGU-GYEONGBUK MEDICAL INNOVATION FOUNDATION, priority 2017, dated 2021)

Columns and labels:
Experiment in all cases: Kinase selectivity, DiscoverX scanMAX Kinase assay panel (% control)
Assay type in all cases: binding
[1] = biological target: T1, kinases of the scanMAX Kinase assay panel (Homo sapiens, UniProt O96017); conditions: CHEK2; 1 uM
T1 construct: purchased DiscoverX Co. (contract measurement) scanMAX Kinase assay panel
Procedure, shortened: (§1)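 A 1 uM DMSO solution of compound was applied across the panel kinases, and results were expressed as % control relative to DMSO (100%) and a positive control (0%).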

[2] = biological target: T2, kinases of the scanMAX Kinase assay panel (Homo sapiens, UniProt Q8IYT8); conditions: kinase ULK2; 1 uM in DMSO
T2 construct: purchased DiscoverX Co. (contract measurement) scanMAX Kinase assay panel
T2 sequence (Q8IYT8 1-1036): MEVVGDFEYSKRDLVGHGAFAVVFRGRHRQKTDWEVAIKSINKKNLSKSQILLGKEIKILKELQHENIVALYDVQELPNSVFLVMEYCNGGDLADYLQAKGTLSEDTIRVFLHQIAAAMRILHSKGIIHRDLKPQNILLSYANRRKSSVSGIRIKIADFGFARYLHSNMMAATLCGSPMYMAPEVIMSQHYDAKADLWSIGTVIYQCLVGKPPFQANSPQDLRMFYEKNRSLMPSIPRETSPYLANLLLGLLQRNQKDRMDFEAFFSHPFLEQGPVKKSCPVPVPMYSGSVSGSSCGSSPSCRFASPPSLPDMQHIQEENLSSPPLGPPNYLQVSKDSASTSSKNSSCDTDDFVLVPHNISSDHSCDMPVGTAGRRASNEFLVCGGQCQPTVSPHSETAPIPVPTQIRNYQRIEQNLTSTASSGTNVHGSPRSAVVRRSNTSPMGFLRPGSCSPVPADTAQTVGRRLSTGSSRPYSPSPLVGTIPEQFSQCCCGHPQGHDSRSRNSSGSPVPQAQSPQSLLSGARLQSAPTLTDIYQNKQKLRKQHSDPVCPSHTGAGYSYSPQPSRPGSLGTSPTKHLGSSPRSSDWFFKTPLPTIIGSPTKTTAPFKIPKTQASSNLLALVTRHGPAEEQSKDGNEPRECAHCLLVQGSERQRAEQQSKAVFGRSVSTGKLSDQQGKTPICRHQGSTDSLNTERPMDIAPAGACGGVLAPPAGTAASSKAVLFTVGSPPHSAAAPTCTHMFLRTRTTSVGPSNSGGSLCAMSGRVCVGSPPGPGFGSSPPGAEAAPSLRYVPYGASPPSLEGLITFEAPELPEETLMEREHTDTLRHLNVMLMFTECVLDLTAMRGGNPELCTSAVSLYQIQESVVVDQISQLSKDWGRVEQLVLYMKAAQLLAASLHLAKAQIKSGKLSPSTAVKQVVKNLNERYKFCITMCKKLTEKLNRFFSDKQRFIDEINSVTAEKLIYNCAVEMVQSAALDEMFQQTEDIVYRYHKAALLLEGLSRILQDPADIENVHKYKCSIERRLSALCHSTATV
Procedure, shortened: as §1

[3] = biological target: T3, kinases of the scanMAX Kinase assay panel (Homo sapiens, UniProt Q56UN5); conditions: kinase YSK4; 1 uM in DMSO
T3 construct: purchased DiscoverX Co. (contract measurement) scanMAX Kinase assay panel
T3 sequence (Q56UN5 1-1328): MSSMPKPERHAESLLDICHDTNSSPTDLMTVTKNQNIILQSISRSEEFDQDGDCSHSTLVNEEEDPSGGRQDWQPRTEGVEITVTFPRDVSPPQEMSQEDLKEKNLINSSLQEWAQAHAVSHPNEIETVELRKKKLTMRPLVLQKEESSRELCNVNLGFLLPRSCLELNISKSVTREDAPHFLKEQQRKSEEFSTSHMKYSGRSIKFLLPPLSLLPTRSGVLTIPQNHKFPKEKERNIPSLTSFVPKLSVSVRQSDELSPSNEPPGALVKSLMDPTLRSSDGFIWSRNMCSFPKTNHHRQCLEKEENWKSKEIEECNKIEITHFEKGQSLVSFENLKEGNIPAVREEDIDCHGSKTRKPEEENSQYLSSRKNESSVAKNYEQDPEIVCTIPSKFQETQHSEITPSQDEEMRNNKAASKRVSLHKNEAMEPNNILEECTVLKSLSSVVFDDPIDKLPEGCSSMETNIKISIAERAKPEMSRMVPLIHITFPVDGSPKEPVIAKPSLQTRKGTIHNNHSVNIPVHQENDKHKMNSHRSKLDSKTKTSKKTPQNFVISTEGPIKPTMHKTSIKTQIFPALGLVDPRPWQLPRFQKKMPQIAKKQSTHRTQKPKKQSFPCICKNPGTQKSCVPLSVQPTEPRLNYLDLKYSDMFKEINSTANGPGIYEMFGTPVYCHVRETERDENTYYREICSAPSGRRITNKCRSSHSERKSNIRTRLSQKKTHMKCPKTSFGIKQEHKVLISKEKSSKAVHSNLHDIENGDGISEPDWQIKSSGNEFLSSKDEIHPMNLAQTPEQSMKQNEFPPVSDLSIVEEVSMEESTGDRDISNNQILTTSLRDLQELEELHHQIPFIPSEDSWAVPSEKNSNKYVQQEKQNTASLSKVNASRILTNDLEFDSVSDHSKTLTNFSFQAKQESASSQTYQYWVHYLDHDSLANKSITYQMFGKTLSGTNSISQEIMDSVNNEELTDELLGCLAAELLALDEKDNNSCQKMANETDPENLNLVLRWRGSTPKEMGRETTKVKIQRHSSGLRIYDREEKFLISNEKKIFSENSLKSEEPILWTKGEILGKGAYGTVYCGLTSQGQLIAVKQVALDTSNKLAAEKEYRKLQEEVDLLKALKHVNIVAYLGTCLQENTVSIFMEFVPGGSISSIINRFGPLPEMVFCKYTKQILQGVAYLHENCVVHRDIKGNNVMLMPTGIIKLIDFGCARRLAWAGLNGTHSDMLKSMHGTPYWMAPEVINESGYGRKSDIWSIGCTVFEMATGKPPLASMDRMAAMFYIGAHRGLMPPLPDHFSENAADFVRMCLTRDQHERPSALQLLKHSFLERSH
Procedure, shortened: as §1

T1 sequence (O96017 whole entry): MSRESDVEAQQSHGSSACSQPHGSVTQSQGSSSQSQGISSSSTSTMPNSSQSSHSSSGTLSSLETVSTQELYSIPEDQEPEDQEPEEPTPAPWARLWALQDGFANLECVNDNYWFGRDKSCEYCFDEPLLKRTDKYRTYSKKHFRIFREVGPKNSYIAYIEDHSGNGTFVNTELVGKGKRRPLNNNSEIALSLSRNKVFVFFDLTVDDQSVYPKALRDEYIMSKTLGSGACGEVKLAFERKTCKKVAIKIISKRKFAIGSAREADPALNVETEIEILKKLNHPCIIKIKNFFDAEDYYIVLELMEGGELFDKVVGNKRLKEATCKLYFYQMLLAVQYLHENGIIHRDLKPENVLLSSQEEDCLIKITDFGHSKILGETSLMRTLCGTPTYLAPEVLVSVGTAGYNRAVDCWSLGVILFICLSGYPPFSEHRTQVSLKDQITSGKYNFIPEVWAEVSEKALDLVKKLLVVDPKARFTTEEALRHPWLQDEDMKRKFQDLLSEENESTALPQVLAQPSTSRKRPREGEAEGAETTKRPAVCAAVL

SMILES	remaining binding at 1 µM [1] [%]	remaining binding at 1 µM [2] [%]	remaining binding at 1 µM [3] [%]
CNc1nc(Nc2ccc(C(=O)N3CCOCC3)cc2OC)nc2[nH]cc(C#N)c12 [Example 1, 2-((2-methoxy-4-(morpholine-4-carbonyl)phenyl)amino)-4-(methylamino)-7H-pyrrolo[2,3-d]pyrimidine-5-carbonitrile]	7.7	75	12
CC1(Nc2nc(Nc3cnn([C@H]4CCN(C5COC5)C[C@@H]4F)c3Cl)nc3[nH]cc(C#N)c23)CC1 [Example 52, 2-((5-chloro-1-((3S,4S)-3-fluoro-1-(oxetane-3-yl)piperidine-4-yl)-1H-pyrazole-4-yl)amino)((1-methylcyclopropyl)amino)-7H-pyrrolo[2,3-d]pyrimidine-5-carbonitrile]	0	15	0
CCNc1nc(Nc2ccc(C(=O)N3CCC(N4CCOCC4)CC3)cc2OC)nc2[nH]cc(C(F)(F)F)c12 [Example 104, (4-((4-(ethylamino)-5-(trifluoromethyl)-7H-pyrrolo[2,3-d]pyrimidine-2-yl)amino)-3-methoxyphenyl)(4-morpholinopiperidine-1-yl)methanone]	12	100	94
